Drawing on PubChem BioAssay AID179 (DTP/NCI, 2004), this text covers EC50, IC50 and outcome for 76 compounds.

The test deals with CEM cells HIV-1 protection, formazan growth assay. The experiment in a line: NCI AIDS Antiviral Assay. Conditions: for IC50: measured here: growth of uninfected CEM cells. In outline: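 Protection of CEM cells against HIV-1 measured as cell growth via soluble formazan read-out, with five concentrations tested on both infected and uninfected cells; failure to protect may reflect toxicity.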

Where “and” joins values, the source holds several entries; their conditions need not be identical. Identical values can stand only once. Calls of active or inactive are those of the source.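 Rule for the calls: active = compounds giving half or more protection of infected cells from virus-caused growth loss, again on retest; inactive = the rest.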 A value given as a limit tells only on which side of the number the result lay.

As a reminder, the EC50 is the midpoint of the concentration-response curve. The term IC50 denotes the concentration needed to halve the response being measured. A low value points to greater potency. As to `COC(=O)c1ccc(C(=O)OC)c2nc3cc(C)ccc3nc12`, the EC50 is more than 219 µM and the IC50 was more than 219 µM. As for `CN(C(=O)c1ccc2c(c1)sc1c(=O)n(C)c3ccccc3c12)c1ccccc1`, the EC50 is more than 200 µM and the IC50 was more than 200 µM. With `CC1(C)CC(=O)C2=C(C1)NC(SSC1=C(C#N)C(c3ccc(F)cc3)C3=C(CC(C)(C)CC3=O)N1)=C(C#N)C2c1ccc(F)cc1` (centres undefined), the EC50 was 19.1 µM and the IC50 worked out at 39.8 µM.

Take `O=C1CC[C@@H](S(=O)(=O)c2ccccc2)[C@H](/C=C/c2ccccc2)O1`: the result was inactive. For the compound `CC(Oc1ccc(OCC2CCCCC2)cc1)C(=O)NCCO` (centres undefined), the EC50 is more than 295 µM and the half-maximal inhibitory concentration (IC50) came out at 41.7 µM. On to `OCC1C(O)[C@@H]2OC3(CCCC3)O[C@@H]2CN1OC/C=C/c1ccccc1` (some centres undefined), for which the EC50 is more than 200 µM and the half-maximal inhibitory concentration (IC50) is 145 µM. As for `C=CC(CCC(C)OC(CCC)OCC)[Si](C)(C)C` (centres undefined), the EC50 is more than 91.2 µM and the IC50 was more than 91.2 µM. Take `CC1(C)CC(=O)C2=C(C1)OC1=C(CC(C)(C)CC1=O)C2c1ccccc1[N+](=O)[O-]` (centres undefined): the EC50 is more than 200 µM and the half-inhibitory concentration (IC50) is more than 200 µM.

For `CC(C)(C)NNC(=O)CCn1[nH]c(=O)c(Cl)c(Cl)c1=O`, the EC50 was more than 407 µM and the half-inhibitory concentration (IC50) is more than 407 µM. Consider `CC1(C)CC[C@]2(C(=O)OC3OC(CO)C(O)C(O)C3O)CCC3(C)C(=CCC4[C@@]5(C)C[C@H](O)[C@H](OC6OC(CO)C(O)C(O)C6O)[C@@](C)(C(=O)O)C5CC[C@]43C)C2C1` (some centres undefined), for which the EC50 was more than 191 µM and the 50% inhibitory concentration (IC50) is more than 191 µM. Take `Cc1ccc2oc(=O)c(C#N)c(/C=C/c3cccc4ccccc34)c2c1`: the EC50 is more than 200 µM and the IC50 was more than 200 µM.

As for `CC(N)CNCCCNCCNCCCNCO` (centres undefined), the EC50 was more than 100 µM and the IC50 was more than 100 µM.

On to `C/C=C/CC1(CC)Oc2cccnc2-n2cccc2C1=O` (centres undefined), for which the EC50 is more than 200 µM and the half-inhibitory concentration (IC50) is more than 100 µM. Turning to `CC(C)(C)C(=O)OC(N)/C=C/c1ccccc1` (centres undefined), the EC50 is more than 200 µM and the IC50 is more than 200 µM. Regarding `CN=C(NC#N)NCc1ccccc1`, the EC50 is more than 1320 µM and the IC50 was 1200 µM. As to `CCOC(=O)c1ccc(Nc2nc3cc(C(F)(F)F)ccc3nc2C(=O)OCC)cc1`, the EC50 was more than 200 µM and the IC50 was 83.2 µM. For `c1ccc(CSC(SCc2ccccc2)(c2ccccc2)c2ccccc2)cc1`, the EC50 was more than 200 µM; the IC50 is 102 µM and > 100 µM. Turning to `C/C(=N\NC(N)=S)C(CN(CC(C)C)CC(C)C)C(=O)Nc1ccc(C)cc1C` (centres undefined), the EC50 is more than 85.1 µM and the concentration for half-maximal inhibition (IC50) was more than 85.1 µM. Take `Cc1nc2nc[nH]n2c1N=Nc1ccccc1`: the EC50 was more than 200 µM and the IC50 was more than 200 µM. In the case of `CCOC(=O)[C@H]1C[C@@H](C(=O)c2ccccc2)N2N=C(c3ccc(Br)cc3)C=C[C@H]12`, the EC50 was more than 100 µM and the IC50 is more than 100 µM. As for `O=C(Nc1ccccc1)c1c(O)[nH]c(=S)[nH]c1=O`, the EC50 was 11.2 µM and the half-inhibitory concentration (IC50) came to 21.4 µM.

Regarding `Nc1ccc(C(=O)N2CCC[C@H]2CO)c(N)c1`, the EC50 was more than 200 µM and the IC50 is more than 200 µM. As to `O=C(O)Cc1ccc(-n2nnc3c(=O)[nH][nH]c(=O)c32)cc1`, the EC50 is more than 200 µM and the IC50 is more than 200 µM. Turning to `COC(=O)C1=C(C(=O)OC)SC(=C2c3ccsc3-c3sccc32)S1`, the EC50 was more than 200 µM and the IC50 is more than 200 µM.

On to `CCOC(=O)C1(Cc2ccccc2)SCCCS1`, for which the EC50 was more than 91.2 µM and the 50% inhibitory concentration (IC50) is more than 91.2 µM. As to `CC(=O)O[C@H]1CC[C@@]2(C)C(CC[C@@H]3C2C(Br)C(=O)[C@]2(C)C4C(CC32)OC2(OCC(C)CC2Br)C4C)C1` (some centres undefined), the outcome was inactive. On the same count and under the same terms, with `O=C1c2ccccc2C(=O)c2c1ccc1c3ccccc3n(Cc3ccccc3)c21` the entry was “inactive”; with `O=c1[nH]c(=O)c2ncn(-c3ccc([N+](=O)[O-])cn3)c2[nH]1`, “inactive”. For the compound `CC(C)C(=O)/C=C/c1ccc(Cl)c(Cl)c1`, the EC50 was more than 200 µM and the IC50 was 11 µM.

`CCOC(=O)C(=CN1CCNC1=S)C(=O)OCC`: the EC50 is more than 200 µM and the IC50 is more than 200 µM. With `Nc1nc2c(ncn2C(CCO)SCCO)c(=O)[nH]1` (centres undefined), the EC50 was more than 871 µM and the IC50 was more than 871 µM. Turning to `N#CC1(C#N)OC12CCS(=O)(=O)c1ccccc12` (centres undefined), the EC50 was more than 501 µM and the concentration for half-maximal inhibition (IC50) turned out to be 89.1 µM. As for `COc1cccc(/C=N/[N-]C(N)=O)c1[O-].[Ni+2].[OH3+].c1ccc(-c2ccccn2)nc1`, the result was inactive. In the case of `CN1C(=O)C(Cl)(C(Cl)(Cl)S(=O)(=O)O)C(=O)c2ccccc21` (centres undefined), the outcome was inactive. On to `Cc1nnc2n1N=C1CC(C)(C)CC(=O)C1S2` (centres undefined), for which the EC50 is more than 105 µM and the IC50 was more than 105 µM. Consider `CC(NS(=O)(=O)c1ccccc1)C(=O)O` (centres undefined), for which the result was inactive. As to `Nc1nc2c(ncn2C2CC(CO)C(CO)C2)c(=O)[nH]1` (centres undefined), the EC50 was more than 224 µM and the half-maximal inhibitory concentration (IC50) is more than 224 µM. Turning to `CCOc1ccc(-n2nnc3c(N)nc(N)nc32)cc1`, the EC50 was more than 200 µM and the concentration for half-maximal inhibition (IC50) was more than 200 µM. `CC(C)(C)c1ccc(N=O)cc1`: the EC50 is more than 20 µM and the IC50 is 2.45 µM. In the case of `O=C1C2C3C=C4c5ccccc5N(c5ccccc5)C4(C2C(=O)N1Cc1ccccc1)C1C(=O)N(Cc2ccccc2)C(=O)C31` (centres undefined), the result was inactive. The same measure, in the same setting: with `CCCCS/C(=C(/C#N)C(N)=O)c1cc2c([nH]1)CCCC2` the entry was “inactive”. Take `CN(C)Cc1cc(N=Nc2ccc(Cl)c(Cl)c2)ccc1O`: the EC50 was more than 200 µM and the half-inhibitory concentration (IC50) worked out at 18.6 µM. Take `NC(N)=N/N=C(/c1nc2ccc([N+](=O)[O-])cc2[nH]c1=O)C(O)c1ccco1` (centres undefined): the EC50 is more than 251 µM and the IC50 is 141 µM.

Consider `C=CC(=O)N1C/C(=C\c2ccc(OC)cc2)C(=O)/C(=C/c2ccc(OC)cc2)C1`, for which the EC50 is 0.2 µM and the concentration for half-maximal inhibition (IC50) stood at 2.4 µM. For `CCOC(=O)c1cnc2c(ccc3[nH]n(C)nc32)c1=O`, the EC50 was more than 251 µM and the IC50 was more than 251 µM. As to `O=C1/C(=C/c2cccs2)NC(=S)N1CN1CCCC(CO)C1` (centres undefined), the EC50 is more than 200 µM and the 50% inhibitory concentration (IC50) amounted to 44.7 µM. On to `CC12CCC(C3NC(=S)NN=C31)C2(C)C` (centres undefined), for which the EC50 was more than 302 µM and the IC50 was more than 302 µM.

For the compound `C[C@@H]1CN2SN1C[C@@H]2C`, the EC50 is more than 1740 µM and the IC50 is more than 1740 µM. Consider `COc1ccc2oc(=N)c(C(=O)Nc3ccccc3)cc2c1`, for which the EC50 was more than 200 µM and the IC50 is 12 µM. In the same order, the values of `O=c1c2cccc3cccc(c4n1CCCN=4)c32` are more than 200 µM and 17 µM.

For `O=[N+]([O-])c1ccccc1SS(=O)(=O)c1ccc(Cl)cc1`, the EC50 is more than 79.4 µM and the IC50 turned out to be 44.7 µM. On the same counts, the results for `COc1cc2c(c([N+](=O)[O-])c1)NC(=O)CS2` are more than 200 µM and 79.4 µM. `CN(C)P1(=O)NCC(C)(C)CO1` (centres undefined): the EC50 is more than 1290 µM and the concentration for half-maximal inhibition (IC50) was more than 1290 µM. With `O=c1c2cccnc2ncn1CCCN1CCCCC1`, the result was inactive. `CCOC(=O)/C=C/CC(C)n1cc(C)c(=O)[nH]c1=O` (centres undefined): the result was inactive. On to `Cc1cc2c(C)n(Cc3ccc(Cl)cc3Cl)nc2c(C#N)c1C`, for which the EC50 was more than 20.9 µM and the half-maximal inhibitory concentration (IC50) was more than 20.9 µM. Consider `C/C(=N\OCC(O)CNC(C)C)c1ccc2c(c1)NC(=O)CS2` (centres undefined), for which the result was inactive. Take `O=c1[nH]c2cc(Cl)ccc2c(O)c1Cc1c(O)c2ccc(Cl)cc2[nH]c1=O`: the EC50 is more than 100 µM and the IC50 worked out at 5.37 µM. On to `CCOC(=O)C(N=O)C(=O)c1ccccc1` (centres undefined), for which the outcome was inactive. In the case of `CC(=O)/C=C/c1cccc(N=S)c1`, the EC50 is more than 2.82 µM and the half-inhibitory concentration (IC50) is more than 2.82 µM. As for `Cc1cc(NC(=O)c2ccc(N=Nc3c(S(=O)(=O)O)cc4cc(NC(=O)c5ccc(N)cc5)ccc4c3O)cc2)ccc1N=Nc1ccc2cc(S(=O)(=O)O)cc(S(=O)(=O)O)c2c1`, the outcome was active.

For `CCCCCCCC1=NN(c2ccc(S(=O)(=O)O)cc2)C(=O)C1N=O` (centres undefined), the EC50 was more than 200 µM and the IC50 is more than 200 µM. Take `O=S(=O)(c1ccccc1)N1CCCC(c2ccccc2)CC1` (centres undefined): the outcome was inactive.

Compound `CCCC(=O)OCc1cc(=O)n(C)c2c3c4c(cc12)c(C)cc(=O)n4CO3` registered an EC50 of more than 174 µM and a concentration for half-maximal inhibition (IC50) of 6.76 µM. In the case of `Cc1cc(=O)[nH]c(NN2C(Cl)C(=O)C2c2ccc([N+](=O)[O-])cc2)n1` (centres undefined), the EC50 is more than 53.7 µM and the concentration for half-maximal inhibition (IC50) came out at 8.51 µM. With `COC(=O)c1nc(-c2nc(CCNC(=O)OC(C)(C)C)sc2Cl)sc1Cl`, the EC50 is more than 4.27 µM and the IC50 is more than 4.27 µM. For `O=P1(Nc2ccccc2)OCCCN1Cc1ccc(Cl)c(Cl)c1` (centres undefined), the EC50 was more than 200 µM and the IC50 is 53.7 µM. With `CCCCCCCCCCCCCCCc1cc(=O)c2c(O)cc(O)cc2o1`, the outcome was inactive. As to `CCOC(=O)C(C)c1nc2c(Cl)c3ncccc3cc2[nH]c1=O` (centres undefined), the EC50 is more than 200 µM and the IC50 was more than 200 µM. Consider `Cc1cc(C)c(C)c(C(=O)OCC(C)(C)C)c1C`, for which the EC50 was more than 200 µM and the half-inhibitory concentration (IC50) came out at 110 µM.

Regarding `O=C(O)c1ccc2c(n1)-c1nc3nc4c(cc3cc1CC2)CCc1ccc(C(=O)O)nc1-4`, the EC50 is more than 200 µM and the 50% inhibitory concentration (IC50) stood at 21.9 µM.

For `c1ccc2c(c1)CCN(NCCN1CCCC1)C2`, the outcome was inactive. Take `CCCC(=O)N[C@H]1C2C3CC4C5CC(C42)C1(C)C53` (some centres undefined): the EC50 was more than 275 µM and the IC50 was more than 275 µM. As for `CC(C)[C@@H]1C=C(c2ccccc2)c2ccccc2C1C(C#N)(C#N)C(C)C` (some centres undefined), the EC50 was more than 20.4 µM and the 50% inhibitory concentration (IC50) is more than 20.4 µM. For `CC1=C2C(=CC(C)(C)C2O)C(=O)C(C)(O)C12CC2` (centres undefined), the outcome was inactive. Regarding `CCOP(=O)(OCC)C1(O)CC(n2cc(C)c(=O)[nH]c2=O)OC1CO` (centres undefined), the EC50 is more than 200 µM and the 50% inhibitory concentration (IC50) was more than 200 µM.
